Drawing on BindingDB's records for PubMed 20126400 (University of Oklahoma, 2010), this text covers Ki for 14 molecules.

Test in all cases: Ray2010 Assay 74
Assay [1] concerns the target T1, Muscarinic acetylcholine receptor M1 (Homo sapiens, UniProt P11229).
T1 sequence (P11229 whole entry): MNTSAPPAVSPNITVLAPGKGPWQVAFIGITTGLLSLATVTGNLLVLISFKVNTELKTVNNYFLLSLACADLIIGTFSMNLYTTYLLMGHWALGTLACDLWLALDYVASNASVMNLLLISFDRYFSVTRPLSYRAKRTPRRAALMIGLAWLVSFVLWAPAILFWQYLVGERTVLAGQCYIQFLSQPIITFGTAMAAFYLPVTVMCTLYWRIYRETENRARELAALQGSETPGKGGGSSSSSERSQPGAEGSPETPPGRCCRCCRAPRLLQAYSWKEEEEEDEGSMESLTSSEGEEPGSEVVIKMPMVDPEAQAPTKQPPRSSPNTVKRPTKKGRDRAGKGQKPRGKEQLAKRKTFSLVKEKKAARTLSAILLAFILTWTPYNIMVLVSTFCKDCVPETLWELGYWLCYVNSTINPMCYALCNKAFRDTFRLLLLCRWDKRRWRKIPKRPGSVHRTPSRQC
The source says: (§1) Table S2 shows raw Ki data for the current study combined with data collected from the literature for the ten additional compounds.

Assay [2] addresses T2, Alpha-1B adrenergic receptor (Homo sapiens, UniProt P35368).
T2 sequence (P35368 whole entry): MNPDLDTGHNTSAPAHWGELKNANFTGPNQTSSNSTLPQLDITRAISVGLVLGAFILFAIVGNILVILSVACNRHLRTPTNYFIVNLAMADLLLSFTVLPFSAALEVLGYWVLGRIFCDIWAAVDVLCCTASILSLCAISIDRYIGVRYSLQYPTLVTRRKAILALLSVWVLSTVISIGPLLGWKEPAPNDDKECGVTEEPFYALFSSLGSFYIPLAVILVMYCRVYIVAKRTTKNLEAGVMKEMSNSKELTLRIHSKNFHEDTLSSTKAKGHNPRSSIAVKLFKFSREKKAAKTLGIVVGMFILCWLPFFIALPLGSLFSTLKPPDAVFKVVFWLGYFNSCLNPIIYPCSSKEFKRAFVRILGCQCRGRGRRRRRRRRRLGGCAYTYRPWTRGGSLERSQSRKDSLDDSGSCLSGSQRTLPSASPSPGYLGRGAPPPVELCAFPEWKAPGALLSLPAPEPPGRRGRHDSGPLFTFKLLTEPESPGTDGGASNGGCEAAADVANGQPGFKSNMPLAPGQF
Text: as §1

Assay [3] concerns the target 5-hydroxytryptamine receptor 5A (Homo sapiens, UniProt P47898).
Text: as §1

Assay [4] addresses T3, Muscarinic acetylcholine receptor M5 (Homo sapiens, UniProt P08912).
T3 sequence (P08912 whole entry): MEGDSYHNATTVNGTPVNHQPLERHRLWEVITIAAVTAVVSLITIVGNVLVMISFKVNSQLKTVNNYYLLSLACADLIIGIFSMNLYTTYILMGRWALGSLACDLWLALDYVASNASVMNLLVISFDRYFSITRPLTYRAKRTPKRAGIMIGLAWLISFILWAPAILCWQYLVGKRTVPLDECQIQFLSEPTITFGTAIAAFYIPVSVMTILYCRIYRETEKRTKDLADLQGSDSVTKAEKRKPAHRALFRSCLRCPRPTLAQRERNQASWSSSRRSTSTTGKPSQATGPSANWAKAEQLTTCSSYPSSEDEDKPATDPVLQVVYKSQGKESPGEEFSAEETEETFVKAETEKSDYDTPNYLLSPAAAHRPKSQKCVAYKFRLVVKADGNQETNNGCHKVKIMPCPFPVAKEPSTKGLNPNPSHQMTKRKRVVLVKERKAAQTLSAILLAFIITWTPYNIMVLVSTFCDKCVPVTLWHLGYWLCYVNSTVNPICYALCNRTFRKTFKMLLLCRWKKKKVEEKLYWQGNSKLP
Text: as §1

The target of assay [5] is T4, Alpha-1A adrenergic receptor (Homo sapiens, UniProt P35348).
T4 sequence (P35348 whole entry): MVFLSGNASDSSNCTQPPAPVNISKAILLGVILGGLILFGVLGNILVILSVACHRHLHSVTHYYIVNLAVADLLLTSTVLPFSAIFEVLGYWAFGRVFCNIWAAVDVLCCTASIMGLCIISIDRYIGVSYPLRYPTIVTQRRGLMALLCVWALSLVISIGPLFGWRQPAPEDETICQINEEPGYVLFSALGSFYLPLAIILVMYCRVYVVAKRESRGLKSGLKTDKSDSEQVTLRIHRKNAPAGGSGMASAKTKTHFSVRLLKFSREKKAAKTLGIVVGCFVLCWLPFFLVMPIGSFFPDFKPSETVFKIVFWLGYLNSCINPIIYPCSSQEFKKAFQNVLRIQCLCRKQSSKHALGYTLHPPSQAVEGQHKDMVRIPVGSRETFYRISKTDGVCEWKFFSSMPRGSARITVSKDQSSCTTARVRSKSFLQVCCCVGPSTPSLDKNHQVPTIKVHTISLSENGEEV
Text: as §1

Assay [6] deals with 5-hydroxytryptamine receptor 1B (Homo sapiens, UniProt P28222).
Sequence of 5-hydroxytryptamine receptor 1B (P28222 whole entry): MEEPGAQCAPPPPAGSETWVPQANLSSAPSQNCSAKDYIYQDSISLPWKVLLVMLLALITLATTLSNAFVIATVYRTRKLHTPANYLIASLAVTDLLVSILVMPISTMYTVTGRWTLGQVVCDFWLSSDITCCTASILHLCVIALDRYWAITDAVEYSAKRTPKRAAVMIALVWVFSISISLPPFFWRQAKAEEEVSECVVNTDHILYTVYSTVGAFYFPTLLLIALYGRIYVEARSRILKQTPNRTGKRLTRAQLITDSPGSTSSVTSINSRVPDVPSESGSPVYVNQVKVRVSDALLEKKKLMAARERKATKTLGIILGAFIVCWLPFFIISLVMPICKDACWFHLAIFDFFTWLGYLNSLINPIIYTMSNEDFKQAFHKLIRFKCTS
Text: as §1

The target in assay [7] is D(2) dopamine receptor (Homo sapiens, UniProt P14416).
Sequence of D(2) dopamine receptor (P14416 whole entry): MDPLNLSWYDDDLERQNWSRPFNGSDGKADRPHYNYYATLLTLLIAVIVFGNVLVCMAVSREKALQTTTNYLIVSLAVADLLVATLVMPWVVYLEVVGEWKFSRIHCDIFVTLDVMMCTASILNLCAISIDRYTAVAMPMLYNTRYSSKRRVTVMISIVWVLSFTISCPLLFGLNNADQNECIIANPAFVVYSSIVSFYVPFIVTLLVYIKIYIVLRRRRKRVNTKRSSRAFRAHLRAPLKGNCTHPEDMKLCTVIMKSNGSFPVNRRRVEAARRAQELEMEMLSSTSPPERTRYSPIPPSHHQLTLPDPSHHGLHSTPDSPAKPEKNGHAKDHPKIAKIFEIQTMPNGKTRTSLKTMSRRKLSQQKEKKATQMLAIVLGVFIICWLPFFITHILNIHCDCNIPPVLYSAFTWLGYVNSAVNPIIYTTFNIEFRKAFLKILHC
Text: as §1

Assay [8] deals with Histamine H1 receptor (Homo sapiens, UniProt P35367).
Sequence of Histamine H1 receptor (P35367 whole entry): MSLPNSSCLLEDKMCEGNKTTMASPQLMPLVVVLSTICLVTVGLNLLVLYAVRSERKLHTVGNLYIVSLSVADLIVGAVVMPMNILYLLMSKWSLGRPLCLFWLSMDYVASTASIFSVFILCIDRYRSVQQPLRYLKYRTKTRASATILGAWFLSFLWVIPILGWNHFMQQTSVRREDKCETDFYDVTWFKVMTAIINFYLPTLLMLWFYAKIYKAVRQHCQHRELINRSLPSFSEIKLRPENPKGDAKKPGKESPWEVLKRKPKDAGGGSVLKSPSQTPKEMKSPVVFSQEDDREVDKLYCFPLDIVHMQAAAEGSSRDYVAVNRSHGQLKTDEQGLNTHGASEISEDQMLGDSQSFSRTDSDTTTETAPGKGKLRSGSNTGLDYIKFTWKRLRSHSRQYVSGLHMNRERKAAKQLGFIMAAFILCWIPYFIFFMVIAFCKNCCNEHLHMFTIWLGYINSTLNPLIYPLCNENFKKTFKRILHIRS
Text: as §1

The target in assay [9] is 5-hydroxytryptamine receptor 2A (Homo sapiens, UniProt P28223).
Sequence of 5-hydroxytryptamine receptor 2A (P28223 whole entry): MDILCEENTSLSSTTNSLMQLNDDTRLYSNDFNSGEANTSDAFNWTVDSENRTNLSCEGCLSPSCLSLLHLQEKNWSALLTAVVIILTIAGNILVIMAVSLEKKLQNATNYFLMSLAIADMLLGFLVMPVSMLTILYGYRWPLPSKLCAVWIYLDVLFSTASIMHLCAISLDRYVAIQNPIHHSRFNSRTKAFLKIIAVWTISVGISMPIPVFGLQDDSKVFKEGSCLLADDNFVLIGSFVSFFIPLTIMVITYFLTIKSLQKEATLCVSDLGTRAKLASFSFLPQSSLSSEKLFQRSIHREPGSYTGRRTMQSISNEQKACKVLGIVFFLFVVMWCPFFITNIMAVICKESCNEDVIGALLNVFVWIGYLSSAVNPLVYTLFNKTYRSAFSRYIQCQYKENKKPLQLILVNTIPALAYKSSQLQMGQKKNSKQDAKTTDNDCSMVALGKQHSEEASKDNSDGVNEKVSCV
Text: as §1

In assay [10] the target is T5, 5-hydroxytryptamine receptor 1A (Homo sapiens, UniProt P08908).
T5 sequence (P08908 whole entry): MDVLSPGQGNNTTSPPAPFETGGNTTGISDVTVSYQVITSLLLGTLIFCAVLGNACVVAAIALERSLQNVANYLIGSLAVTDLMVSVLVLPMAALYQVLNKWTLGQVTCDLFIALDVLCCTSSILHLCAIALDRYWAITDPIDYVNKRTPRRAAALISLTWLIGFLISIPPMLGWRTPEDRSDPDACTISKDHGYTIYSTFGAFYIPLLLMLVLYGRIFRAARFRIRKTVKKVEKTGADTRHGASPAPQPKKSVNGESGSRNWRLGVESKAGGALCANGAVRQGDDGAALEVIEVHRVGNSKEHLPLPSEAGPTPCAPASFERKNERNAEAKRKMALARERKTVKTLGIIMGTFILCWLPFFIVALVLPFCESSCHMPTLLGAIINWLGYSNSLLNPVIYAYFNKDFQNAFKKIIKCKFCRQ
Text: as §1

Assay [11] addresses 5-hydroxytryptamine receptor 2B (Homo sapiens, UniProt P41595).
Text: as §1

Bounds are passed on as bounds.

Sequence of 5-hydroxytryptamine receptor 5A (P47898 whole entry): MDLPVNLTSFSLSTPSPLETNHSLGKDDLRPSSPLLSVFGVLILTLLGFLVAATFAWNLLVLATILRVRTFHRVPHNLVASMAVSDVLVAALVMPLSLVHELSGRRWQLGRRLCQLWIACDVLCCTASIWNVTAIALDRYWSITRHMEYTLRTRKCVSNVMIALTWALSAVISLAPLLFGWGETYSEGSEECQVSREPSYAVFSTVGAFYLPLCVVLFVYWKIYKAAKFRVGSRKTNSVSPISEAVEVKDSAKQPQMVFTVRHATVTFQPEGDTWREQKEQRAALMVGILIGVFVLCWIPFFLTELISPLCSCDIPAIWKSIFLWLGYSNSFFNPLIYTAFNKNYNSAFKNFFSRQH
Sequence of 5-hydroxytryptamine receptor 2B (P41595 whole entry): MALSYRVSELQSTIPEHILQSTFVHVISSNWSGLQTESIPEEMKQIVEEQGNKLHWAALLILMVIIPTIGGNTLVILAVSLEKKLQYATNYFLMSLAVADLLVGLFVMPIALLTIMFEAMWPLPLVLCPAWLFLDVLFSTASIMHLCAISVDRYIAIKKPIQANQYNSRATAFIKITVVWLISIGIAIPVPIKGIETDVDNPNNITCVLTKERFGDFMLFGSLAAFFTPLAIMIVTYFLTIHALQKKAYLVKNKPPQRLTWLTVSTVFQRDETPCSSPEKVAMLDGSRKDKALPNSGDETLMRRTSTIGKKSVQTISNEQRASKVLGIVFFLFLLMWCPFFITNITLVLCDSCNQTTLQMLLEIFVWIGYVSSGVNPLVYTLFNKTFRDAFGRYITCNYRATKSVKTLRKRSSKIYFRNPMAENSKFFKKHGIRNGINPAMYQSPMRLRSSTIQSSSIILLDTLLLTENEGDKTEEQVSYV

For the molecule `CCSc1cc(OC)c(CC(C)N)cc1OC` (stereo not drawn) [2-(4-Ethylsulfanyl-2,5-dimethoxy-phenyl)-1-methyl-ethylamine], the Ki (commonly the equilibrium dissociation constant of an inhibitor or competing ligand from its target) in assay [1] was greater than 10 µM; in assay [2], greater than 10 µM; in assay [3], greater than 10 µM; in assay [4] it was 8.02 µM; in assay [5], greater than 10 µM; in assay [6] it was 2.04 µM. The Ki in assay [7] is greater than 10 µM; in [8] it was greater than 10 µM; in assay [9], 0.0604 µM; in assay [10] it was 1.67 µM; in assay [11] it was 0.0016 µM.
In the case of `COc1cc(CCN)cc(OC)c1OC` [3,4,5-trimethoxyphenylethylamine], the Ki in [1], in assay [2], in assay [3], in [4], in [5] and in [6] was greater than 10 µM throughout. For the same molecule, the Ki in assay [7] is greater than 10 µM; in assay [8] it was greater than 10 µM; in assay [9] it was greater than 10 µM; in assay [10], 1.84 µM.
`COc1cc(CC(C)N)c(OC)cc1C` (stereo not drawn) [(+/-)2-(2,5-Dimethoxy-4-methyl-phenyl)-1-methyl-ethylamine]: the Ki in [1] is greater than 10 µM; in assay [2], greater than 10 µM; in assay [3], greater than 10 µM; in assay [4], greater than 10 µM; in assay [5], 3.22 µM; in [6], greater than 10 µM. The Ki in [7] is greater than 10 µM; in assay [8] it was greater than 10 µM; in assay [9], 0.507 µM; in assay [10] it was 3.66 µM; in assay [11], 0.0117 µM.
With `CN(C)CCc1c[nH]c2ccccc12` [2-(1H-indol-3-yl)-N,N-dimethylethanamine], the Ki in assay [1] is greater than 10 µM; in assay [2] it was 0.974 µM; in [3], 0.611 µM; in assay [4] it was greater than 10 µM; in [5], 1.75 µM; in assay [6] it was greater than 10 µM. Besides, the Ki in assay [7] was greater than 10 µM; in assay [9] it was 2.32 µM.
Take `CCc1cc(OC)c(CCN)cc1OC` [2-(2,5-dimethoxy-4-ethylphenyl)ethylamine]: the Ki was greater than 10 µM in assay [1]; greater than 10 µM in [2]; greater than 10 µM in [3]; 1.73 µM in assay [4]; greater than 10 µM in assay [5]; 0.253 µM in [6]. The Ki was 3.34 µM in [7], greater than 10 µM in [8], 0.0439 µM in assay [9] and 0.0251 µM in [11].
Consider `CC(C)N(CCc1c[nH]c2ccccc12)C(C)C` [dipt], for which the Ki in assay [1], in assay [2], in [3], in assay [4], in assay [5] and in [6] was greater than 10 µM in each case. Also, the Ki in assay [7] is greater than 10 µM; in assay [8], 3.58 µM; in [9], greater than 10 µM; in assay [10] it was 0.12 µM; in assay [11] it was 0.398 µM.
Turning to `CC[C@H]1C[C@@H]2C[C@H]3c4[nH]c5ccc(OC)cc5c4CCN(C2)[C@@H]13`, the Ki in assay [1] is 22.5 µM; in assay [6] it was greater than 10 µM; in [7], greater than 10 µM; in assay [8], greater than 10 µM; in assay [9], 14.1 µM; in assay [10] it was greater than 10 µM.
Take `CN(C)CCc1c[nH]c2cc(F)ccc12` [6-f-dmt]: the Ki was greater than 10 µM in assay [1]; greater than 10 µM in assay [2]; 0.96 µM in assay [3]; greater than 10 µM in [4]; 0.173 µM in assay [5]; 0.218 µM in [6]. In addition, the Ki in [7] came out at 0.61 µM; in [8], 0.0466 µM; in assay [10], 0.393 µM; in assay [11] it was 0.0298 µM.
On to `CCc1[nH]c2ccc(OC)cc2c1CCN(C)C` [2-ethyl-5-methoxy-N,N-dimethyltryptamine], for which the Ki in assay [1], in assay [4], in assay [6], in assay [7], in assay [8] and in [9] was greater than 10 µM throughout.
`COc1ccc2[nH]c(C)c(CCN(C)C)c2c1` [[2-(5-Methoxy-2-methyl-1H-indol-3-yl)-ethyl]-dimethyl-amine (C2H2O)]: the Ki in [1], in assay [4], in assay [6], in assay [7], in assay [8] and in assay [9] was greater than 10 µM each time.
With `COc1ccc2[nH]cc(CCN(C)C)c2c1` [3-(2-DIMETHYLAMINOETHYL)-5-METHOXYINDOLE], the Ki in assay [1] was greater than 10 µM; in assay [2] it was greater than 10 µM; in assay [4], greater than 10 µM; in [5], greater than 10 µM; in assay [7] it was 3.56 µM.
As to `CN(C)CCc1c[nH]c2cccc(O)c12` [4-hydroxy-N,N-dimethyltryptamine], the Ki in assay [1], in assay [2], in [5], in assay [7] and in [8] was greater than 10 µM throughout.
Consider `COc1ccc2[nH]cc(CCN(C(C)C)C(C)C)c2c1` [5-meo-dipt], for which the Ki in assay [1], in assay [2], in [3], in assay [4], in assay [5] and in assay [7] was greater than 10 µM each time. Moreover, the Ki is greater than 10 µM in assay [8], 0.132 µM in assay [10] and 0.163 µM in assay [11].
`COc1cc(CC(C)N)c(OC)cc1Br` (stereo not drawn) [2-(4-Bromo-2,5-dimethoxy-phenyl)-1-methyl-ethylamine((-)-DOB)]: the Ki is greater than 10 µM in [1]; greater than 10 µM in [2]; 5.31 µM in [3]; greater than 10 µM in assay [4]; greater than 10 µM in [5]; 0.941 µM in assay [6]. In addition, the Ki in [7] was greater than 10 µM; in [8] it was 9.12 µM; in assay [10] it was 2.55 µM; in [11] it was 0.0039 µM.
